Results taken from paper PMC12668310, “High‐Throughput Synthesis and Screening of a Cyanimide Library Identifies Selective Inhibitors of ISG15‐Specific Protease mUSP18” (Angewandte Chemie (International Ed. in English), 2025).
Values joined by “and” are separate entries in the source; they are usually repeats but may differ in a detail not shown here. Identical values can stand only once. Like-named read-outs stand apart in the source and are kept apart here.

Biological target: T1, mUSP18 (Mus musculus, UniProt Q9WTV6)
T1 construct: (46-368); His-tag (N); made in house
T1 sequence (Q9WTV6 46-368): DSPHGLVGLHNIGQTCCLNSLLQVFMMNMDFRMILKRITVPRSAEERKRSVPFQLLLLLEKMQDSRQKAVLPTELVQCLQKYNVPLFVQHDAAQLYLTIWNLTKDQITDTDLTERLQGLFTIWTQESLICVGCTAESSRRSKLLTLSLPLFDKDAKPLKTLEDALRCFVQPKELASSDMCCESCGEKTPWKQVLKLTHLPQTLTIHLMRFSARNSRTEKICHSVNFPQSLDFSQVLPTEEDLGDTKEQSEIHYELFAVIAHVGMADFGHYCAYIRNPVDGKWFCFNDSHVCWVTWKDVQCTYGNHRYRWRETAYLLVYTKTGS
Assay: High-throughput screening, ISG15ct-RhoMP, single dose 1.25 µM
Format: biochemical, murine
Conditions: mUSP18 %inhibition

[1] = carboxylic acid (CA) building block alone, read-out: %inh CA only
[2] = carboxylic acid (CA) with coupling reagents DIC/HOBT, read-out: %inh CA + DIC/HOBT

inhibition at 1.25 µM [1] [%] | inhibition at 1.25 µM [2] [%] | %inh CA only (carboxylic acid (CA) building block alone) | %inh CA + DIC/HOBT (carboxylic acid (CA) with coupling reagents DIC/HOBT) | SMILES
14.6 | 10.3 |  |  | O=C(O)c1cccc(S(=O)(=O)NCc2cccs2)c1 [CA095]
-5.16 | -0.88 |  |  | Cc1cc(C)n(-c2ccc(Cl)c(C(=O)O)n2)n1 [CA420]
8.78 | 10.2 |  |  | O=C(O)c1ccccc1OCc1ccncc1 [CA129]
-2.83 | -11.1 |  |  | O=C(O)CCn1ccc(C(=O)N2CCCC2)n1 [CA406]
-5.36 | -14.2 |  |  | N#CCC(=O)O [CA070]
3.84 | -12.6 |  |  | COc1ccc(S(=O)(=O)N(CCC(=O)O)Cc2ccccc2)cc1 [CA424]
10 | 11.6 |  |  | O=C(O)c1cccc(S(=O)(=O)Nc2ccc(Cl)cc2)c1 [CA134]
-1.88 | -17.1 |  |  | O=C(O)CN1CCOCC1 [CA074]
-2.41 | -9.9 |  |  | O=C(O)C(Br)c1ccccc1 (centres unmarked) [CA024]
-7.45 | -14.4 |  |  | CC(=O)C(=O)O [CA079]
1.55 | 4.49 |  |  | O=C(O)c1occc1CN1CCOCC1 [CA206]
-4.05 | -2.36 |  |  | Cn1cc(-c2nc(C(=O)O)cs2)cn1 [CA442]
4.05 | 20.8 |  |  | CC1=NN(c2ccc(C(=O)O)cc2)CC1 [CA155]
2.02 | -5.92 |  |  | O=C(O)c1cc(N2CCOCC2)ccn1 [CA285]
2.86 | -1.08 |  |  | O=C(O)C(Cc1ccccc1)N1CCCOC1=O (centres unmarked) [CA335]
-0.12 | 3.04 |  |  | Cc1n[nH]c(C)c1S(=O)(=O)N1CCC(C(=O)O)CC1 [CA204]
12.3 | 14.7 |  |  | O=C(O)c1csc(-c2ncccn2)n1 [CA111]
1.09 | -13.7 |  |  | Cc1cc(C)cc(N(CCC(=O)O)S(=O)(=O)c2ccc(Cl)cc2)c1 [CA381]
18.6 | 10 |  |  | Cn1ncc(C(=O)O)c1-n1cccc1 [CA117]
-7.04 | -14.2 |  |  | O=C(O)CC1C(=O)Nc2ccccc21 (centres unmarked) [CA078]
3.28 | 7.61 |  |  | CN(Cc1ccco1)c1ccccc1C(=O)O [CA151]

inhibition at 1.25 µM [1] [%] | inhibition at 1.25 µM [2] [%] | %inh CA only (carboxylic acid (CA) building block alone) | %inh CA + DIC/HOBT (carboxylic acid (CA) with coupling reagents DIC/HOBT) | SMILES
4.09 | 0.61 |  |  | O=C(O)C1CC=CCC1C(=O)N1CCOCC1 (centres unmarked) [CA359]
-0.93 | -2.17 |  |  | O=C(O)C1CCCCN1S(=O)(=O)c1ccc(Br)s1 (centres unmarked) [CA459]
-6.16 | -9.92 |  |  | CC(C)(C)OC(=O)NCC(=O)O [CA021]
-0.33 | -1.15 |  |  | O=C(O)C(CCc1ccccc1)c1ccccc1 (centres unmarked) [CA462]
-6.76 | -0.57 |  |  | O=C(O)C1CCN(C(=O)N2CCOCC2)CC1 [CA444]
7.6 | 12 |  |  | O=C(O)c1ncsc1Cc1ccccc1 [CA443]
2.29 | 3.37 |  |  | Cc1csc(N2CCCC(C(=O)O)C2)n1 (centres unmarked) [CA226]
10.9 | -0.27 |  |  | Cn1ncc(C2CC2)c1C(=O)O [CA166]
5.37 | -9.79 |  |  | CN1CCN(c2ccc(C(=O)O)cc2)CC1 [CA085]
7.6 | 4.16 |  |  | O=C(O)c1ccc(S(=O)(=O)NC2CC2)cc1 [CA132]
1.15 | -2.8 |  |  | O=C(O)c1cc(C2CCC2)on1 [CA456]
-2.47 | -16.4 |  |  | O=C(O)CCc1cccnc1 [CA058]
4.45 | 8.32 |  |  | O=C(O)c1ccc(CN2CCCCCC2)s1 [CA279]
7.79 | -9.16 |  |  | NS(=O)(=O)c1ccc(CCNS(=O)(=O)c2cccc(C(=O)O)c2)cc1 [CA283]
12.2 | 8.31 |  |  | O=C(O)[1C@@H]1CCO[1C@H]1c1ccccc1 [CA123]
-0.18 | -12.3 |  |  | CC(C)CC(=O)O [CA003]
 |  | 100.10% and 99.62% | 99.98% and 100.30% | CCN1C(=O)C=CC1=O [NEM]
-3.57 | 6.75 |  |  | Cc1noc(-c2ccc(C(=O)O)cc2)n1 [CA328]
0.4 | 47 |  |  | O=C(O)c1ccc(N2CCCCCC2)nc1 [CA344]
-5.9 | -16.2 |  |  | O=C(O)c1cccc(B(O)O)c1 [CA057]
8.54 | 4.99 |  |  | O=C(O)c1cncc(N2CCCC2)n1 [CA266]

inhibition at 1.25 µM [1] [%] | inhibition at 1.25 µM [2] [%] | %inh CA only (carboxylic acid (CA) building block alone) | %inh CA + DIC/HOBT (carboxylic acid (CA) with coupling reagents DIC/HOBT) | SMILES
-2.66 | 0.1 |  |  | O=C(O)c1cccc(Cn2cncn2)c1 [CA361]
6.72 | 2.22 |  |  | O=C(O)c1ccc2cc3ccccc3cc2c1 [CA068]
3.02 | 10.3 |  |  | Cc1cc(-c2nc(C)sc2CC(=O)O)c(C)s1 [CA184]
4.28 | 10.4 |  |  | O=C(O)c1ccn(-c2ncc(C(F)(F)F)cc2Cl)n1 [CA135]
9.58 | 1.88 |  |  | O=C(O)c1csc(C2CC2)n1 [CA236]
5.25 | 7.6 |  |  | CN(Cc1ccnn1C)C(=O)C1CCCCC1C(=O)O (centres unmarked) [CA277]
6.72 | 5.54 |  |  | O=C(O)c1cnoc1-c1ccccc1C(F)(F)F [CA269]
3.52 | 5.66 |  |  | O=C(O)CC1(n2cccc2)CCCCC1 [CA229]
2 | 15.8 |  |  | O=C(O)c1ccc(N2CCOCC2)cc1 [CA086]
4.94 | 4.56 |  |  | O=C(O)c1c(-c2ccccc2)noc1C(F)F [CA177]
9.91 | -2.33 |  |  | CCn1ccc(-c2cc(C(=O)O)no2)n1 [CA447]
2.79 | -5.82 |  |  | CN1C(=O)CCC(C(=O)O)C1c1cccs1 (centres unmarked) [CA339]
-0.99 | -7.69 |  |  | O=C(O)c1cccc(Oc2nccs2)c1 [CA433]
-2.92 | 4.46 |  |  | O=C(O)c1sccc1S(=O)(=O)NCc1ccco1 [CA320]
0.19 | -11.3 |  |  | O=C(O)c1ccc(CBr)cc1 [CA027]
4.85 | 6.81 |  |  | Cc1ccc(-c2cc(C(=O)O)n[nH]2)s1 [CA249]
6.44 | 2.23 |  |  | O=C(O)c1ccc(Cn2cncn2)cc1 [CA243]
13.4 | -3.66 |  |  | O=C(NCc1ccc(C(=O)O)cc1)OCC1c2ccccc2-c2ccccc21 [CA061]
5.82 | 3.07 |  |  | O=C(O)c1cccc(S(=O)(=O)NC2CC2)c1 [CA143]
-3.97 | 20.1 |  |  | O=C(O)c1cn[nH]c1C1CC1 [CA439]

SMILES | inhibition at 1.25 µM [1] [%] | inhibition at 1.25 µM [2] [%] | %inh CA only (carboxylic acid (CA) building block alone) | %inh CA + DIC/HOBT (carboxylic acid (CA) with coupling reagents DIC/HOBT)
O=C(O)c1cnn(CC2CCCCO2)c1 (centres unmarked) [CA174] | 2.59 | 8.37 |  | 
CCC1(Cn2cc(C(=O)O)nn2)COC1 [CA167] | 10.3 | 2.71 |  | 
